# Reference: PMC4389368, “Sarmentine, a natural herbicide from Piper species with multiple herbicide mechanisms of action” (Frontiers in Plant Science, 2015)
# Tests used:
# [1] = target: T1, enoyl-ACP reductase (ENR) (Arabidopsis thaliana, UniProt Q9SLA8); experiment: NADH oxidation (A340) with purified recombinant enzyme; type: biochemical
# T1 construct: gene MOD1
# T1 sequence (Q9SLA8 75-390): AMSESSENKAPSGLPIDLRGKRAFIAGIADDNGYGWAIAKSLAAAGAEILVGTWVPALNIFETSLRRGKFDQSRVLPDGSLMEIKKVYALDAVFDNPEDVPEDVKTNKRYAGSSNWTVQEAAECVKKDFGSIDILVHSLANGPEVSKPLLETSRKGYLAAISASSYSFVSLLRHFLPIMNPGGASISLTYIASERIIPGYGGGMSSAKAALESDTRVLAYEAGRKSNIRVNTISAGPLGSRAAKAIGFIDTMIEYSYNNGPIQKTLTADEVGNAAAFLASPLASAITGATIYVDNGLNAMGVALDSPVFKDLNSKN
# [2] = target: T2, photosystem II QB protein (D1) (Spinacia oleracea, UniProt P69560); experiment: […]-atrazine displacement on spinach thylakoid membranes; type: binding
# T2 construct: gene psbA; isolated thylakoid membranes; with photosystem II complex
# [3] = test system: T3, photosystem II QB protein (D1); experiment: oxygen evolution in isolated thylakoid membranes; type: biochemical, Amaranthus retroflexus
# T3 construct: gene psbA; isolated thylakoid membranes, wild-type; with photosystem II complex
smiles,measurement,setting,value
"CCCCC/C=C/C=C/C(=O)N1CCCC1 [Sarmentine, 1-(1-pyrrolidinyl)-(2E,4E)-2,4-decadien-1-one]",IC50,[1],18300 nM
same,Ki,[2],1500 nM
same,IC50,[3],1720 nM
CCNc1nc(Cl)nc(NC(C)C)n1 [atrazine],IC50,[3],600 nM
